pEC50, pKi: −log10 of the molar value.
Tests used:
EGFR T790M L858R = biological target: T1, EGFR T790M L858R (Homo sapiens, UniProt P00533, L858R/T790M); assay: EGFR T790M L858R biochemical assay (Caliper mobility shift); details: 5 μM ATP; apparent Ki (Morrison fit) converted by Cheng-Prusoff, Km of ATP 1.3 μM
T1 construct: purchased Life Technologies PV4879
Outline: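 Caliper mobility-shift read-out, electrophoretic separation of substrate from product, after a 30-minute kinase reaction at 22 °C. EDTA at 80 mM terminates each reaction.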

[1] = test system: H1975 (EGFR T790M/L858R) cell proliferation; assay: H1975 proliferation assay (Cell Titer-Glo); format: cell-based; details: Homo sapiens, NCI-H1975, 72 h, NCI-H1975 cells, 72 hour incubation, read-out: H1975 antiproliferative EC50
Protocol: H1975 Proliferation Assays
All cell culture reagents were purchased from Invitrogen/Gibco. Cells are cultured at 37° C. at 5% CO2 and split as recommended by ATCC.

EGFR del746-750 T790M = biological target: T2, EGFR del746-750 T790M (Homo sapiens, UniProt P00533, DEL746-750/T790M); assay: EGFR del746-750 T790M biochemical assay (Caliper mobility shift); details: 5 μM ATP; apparent Ki (Morrison fit) converted by Cheng-Prusoff, Km of ATP 2.1 μM; read-out: EGFR(T790M/d746-750) Ki
T2 construct: purchased Carna Biosciences 08-528
T2 sequence (P00533 with tags, fused parts or gaps DEL746-750/T790M limits assumed): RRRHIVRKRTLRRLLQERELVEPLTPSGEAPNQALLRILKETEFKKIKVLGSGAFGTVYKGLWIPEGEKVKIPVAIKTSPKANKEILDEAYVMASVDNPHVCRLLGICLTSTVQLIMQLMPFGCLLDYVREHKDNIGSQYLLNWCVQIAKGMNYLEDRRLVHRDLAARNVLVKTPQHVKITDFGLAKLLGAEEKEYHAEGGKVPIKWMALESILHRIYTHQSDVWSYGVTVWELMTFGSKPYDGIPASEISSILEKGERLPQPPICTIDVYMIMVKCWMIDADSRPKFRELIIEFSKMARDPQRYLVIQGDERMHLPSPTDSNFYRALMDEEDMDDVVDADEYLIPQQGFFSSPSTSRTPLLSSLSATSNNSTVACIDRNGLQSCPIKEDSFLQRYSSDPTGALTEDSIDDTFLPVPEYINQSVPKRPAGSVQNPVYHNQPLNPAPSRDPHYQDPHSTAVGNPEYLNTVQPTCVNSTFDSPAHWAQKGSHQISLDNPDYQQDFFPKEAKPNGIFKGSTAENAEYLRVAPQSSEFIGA
Outline: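 Caliper mobility-shift read-out, with product electrophoretically resolved from substrate and measured. Reactions were quenched with 80 mM EDTA after 30 min at 22 °C.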

[2] = biological target: T3, phosphor-EGFR in H1975(L585R/T790M) mutant EGFR expressing cells (Homo sapiens, UniProt P00533, L858R/T790M); assay: H1975 pEGFR MSD cellular assay; format: cell-based; details: NCI-H1975 cells, serum starved, 1 hour compound incubation, pEGFR Tyr1068 MSD; read-out: HI975 pEGFR EC50
T3 construct: host or cells: NCI-H1975
T3 sequence (P00533 25-1210 T790M/L858R): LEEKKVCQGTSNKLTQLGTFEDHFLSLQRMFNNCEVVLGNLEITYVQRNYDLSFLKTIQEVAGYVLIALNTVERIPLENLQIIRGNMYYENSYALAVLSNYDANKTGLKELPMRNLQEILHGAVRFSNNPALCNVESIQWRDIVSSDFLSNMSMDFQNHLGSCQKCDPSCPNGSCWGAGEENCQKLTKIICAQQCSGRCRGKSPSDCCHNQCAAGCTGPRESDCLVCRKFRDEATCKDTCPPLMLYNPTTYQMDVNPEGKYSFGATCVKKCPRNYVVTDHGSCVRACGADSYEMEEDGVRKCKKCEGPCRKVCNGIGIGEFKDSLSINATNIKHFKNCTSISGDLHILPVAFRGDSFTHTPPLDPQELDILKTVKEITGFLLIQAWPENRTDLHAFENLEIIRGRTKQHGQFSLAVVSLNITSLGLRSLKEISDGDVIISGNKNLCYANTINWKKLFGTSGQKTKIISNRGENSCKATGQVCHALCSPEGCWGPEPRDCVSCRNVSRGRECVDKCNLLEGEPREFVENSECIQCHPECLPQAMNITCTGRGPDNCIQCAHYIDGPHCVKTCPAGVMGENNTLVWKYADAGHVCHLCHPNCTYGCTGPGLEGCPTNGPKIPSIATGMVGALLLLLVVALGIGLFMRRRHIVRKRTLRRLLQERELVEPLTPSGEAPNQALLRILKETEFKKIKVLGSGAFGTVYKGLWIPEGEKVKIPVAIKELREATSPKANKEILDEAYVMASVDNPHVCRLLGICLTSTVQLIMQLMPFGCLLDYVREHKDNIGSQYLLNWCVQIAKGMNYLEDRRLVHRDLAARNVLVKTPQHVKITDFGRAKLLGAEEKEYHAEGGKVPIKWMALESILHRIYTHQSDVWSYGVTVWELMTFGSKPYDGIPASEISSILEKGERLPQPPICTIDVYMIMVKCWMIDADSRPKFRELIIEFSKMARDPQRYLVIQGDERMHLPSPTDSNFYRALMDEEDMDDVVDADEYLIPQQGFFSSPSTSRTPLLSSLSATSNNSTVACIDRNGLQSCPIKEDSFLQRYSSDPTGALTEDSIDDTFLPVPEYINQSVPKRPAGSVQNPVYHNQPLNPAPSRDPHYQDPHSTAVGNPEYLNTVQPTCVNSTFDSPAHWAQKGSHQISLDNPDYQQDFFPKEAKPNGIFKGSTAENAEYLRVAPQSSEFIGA
Outline: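 Phospho-EGFR read by MSD electrochemiluminescence: capture with anti-pEGFR antibody (overnight, 4° C), detection with SULFO-TAG anti-total EGFR (1 hour, room temperature). Before lysis, H1975 cells starved of serum overnight got compound for 1 hour at 37° C, 0.5% DMSO final. EC50 via four-parameter logistic regression of percent inhibition.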

T1 sequence (P00533 25-1210 T790M/L858R): as above

pKi (EGFR T790M L858R): 8.72 | pEC50 [1]: 5.96 | pKi (EGFR del746-750 T790M): 8.05 | pEC50 [2]: 6.53
SMILES: CCC(C)n1nc(N2CC[C@@H](O)C2)c2cnc(Nc3ccnc(N4CCC(S(C)(=O)=O)CC4)n3)cc21 (stereo partly drawn) [Example 206, (3R)-1-(1-(sec-Butyl)-6-((2-(4-(methylsulfonyl)piperidin-1-yl)pyrimidin-4-yl)amino)-1H-pyrazolo[4,3-c]pyridin-3-yl)pyrrolidin-3-ol]
